{"source": "patent US4127526A", "about": "“Novel tetradecapeptides, intermediates therefor, and compositions and methods employing said tetradecapeptides” (priority 1977, dated 1978)", "origin": "cited, not measured here", "key": {"[1]": {"tested_on": "brain opiate receptor sites"}, "[2]": {"details": "injected directly into the brain of the rat"}}, "data": [{"substance": "H-Tyr-Gly-Gly-Phe-Met-OH [methionine enkephalin]", "values": [{"measurement": "binding to partially purified brain opiate receptor sites", "setting": "[1]", "value": "binds stereo-specifically"}, {"measurement": "activity in bioassays for opiate activity", "setting": "opiate activity", "value": "very active"}, {"measurement": "analgesic activity", "setting": "[2]", "value": "weak analgesic agent of short duration"}]}]}
